This note sets out measurements from ChEMBL document CHEMBL1126342, “Synthesis and preliminary biological evaluation of 1-aminomethyl-4-substituted-4-H-pyrrolo[2,1-C][1,4] benzothiazines, a new class of calcium antagonists” (Bioorg Med Chem Lett, 1992).

“And” between values parts separate entries of the source, which are not always exact repeats. Identical values can stand only once.

Test [1] deals with Voltage-gated L-type calcium channel (Rattus norvegicus, UniProt P22002+Q02485+P27732). Put plainly: Displacement of [3H]nitrendipine from calcium channel receptor. It is filed as protein assay. On the technique in general: Displacement assays read how much labelled ligand stays bound in the presence of the test substance.
For test [2], the species on record is Mus musculus. Put plainly: Blocking calcium channels in mice using electrophysiological technique at 100 uM. It is filed as functional.
The species named for test [3] is Mus musculus. Put plainly: Blocking calcium channels in mice using electrophysiological technique at 10 uM. Format: functional.

`COc1ccc(C2Sc3ccccc3-n3c(CNc4ccc(F)cc4)ccc32)cc1` (centres undefined): in test [1], the IC50 is on record as 5870 nM and the Ki is given as 2200 nM.
`CCC(C)NCc1ccc2n1-c1ccccc1SC2c1ccc(OC)cc1OC` (centres undefined): in test [1], the IC50 amounted to 14.8 nM and the Ki stood at 5.55 nM.
Taken in the same sequence, the figures for `COc1ccc(C2Sc3ccccc3-n3c(CNCCc4ccc(OC)c(OC)c4)ccc32)cc1` (centres undefined) were 534 nM and 200 nM.
`COc1ccc(C2Sc3ccccc3-n3c(CN(C)C)ccc32)c(OC)c1` (centres undefined): in test [2], the Activity came to 74%. Also, the Activity in test [3] was found to be 24%. Besides, in test [1], the IC50 is listed as 150 nM and the Ki was 56 nM.
In the case of `CN(C)Cc1ccc2n1-c1ccccc1SC2c1ccccc1` (centres undefined), in test [3], the Activity is 40% and 65%. Moreover, in test [1], the IC50 turned out to be 315 nM and the Ki is reported as 118 nM.
For `COc1ccc(C2Sc3ccccc3-n3c(CN(C)C)ccc32)cc1` (centres undefined), the Activity turned out to be 62% in test [2] and 20% in test [3].
With `COc1ccc(C2Sc3ccccc3-n3c(CN(C)CCc4ccc(OC)c(OC)c4)ccc32)cc1.Cl` (centres undefined), in test [1], the IC50 is listed as 53 nM and the Ki came out at 19 nM.
In the case of `COc1ccc([C@@H]2Sc3ccccc3N(CCN(C)C)C(=O)[C@@H]2OC(C)=O)cc1` [DILTIAZEM], the Activity in test [2] is 62%; in test [3], 24%.

What is called IC50 is the concentration needed to halve the response being measured. As usually defined, the Ki is the equilibrium dissociation constant of an inhibitor or competing ligand from its target.
